Consider 12 compounds from patent US20260232670A1, “TYRO3 SELECTIVE INHIBITORS AND USES THEREOF” (THE UNIVERSITY OF NORTH CAROLINA AT CHAPEL HILL, priority 2023, published 2026).

Each structure is given as a SMILES string. Where only a bound is given, the exact number is not on record here.

Type in all cases: biochemical
Assay [1] concerns the target T1, AXL (Homo sapiens, UniProt P30530).
T1 sequence (P30530 26-894): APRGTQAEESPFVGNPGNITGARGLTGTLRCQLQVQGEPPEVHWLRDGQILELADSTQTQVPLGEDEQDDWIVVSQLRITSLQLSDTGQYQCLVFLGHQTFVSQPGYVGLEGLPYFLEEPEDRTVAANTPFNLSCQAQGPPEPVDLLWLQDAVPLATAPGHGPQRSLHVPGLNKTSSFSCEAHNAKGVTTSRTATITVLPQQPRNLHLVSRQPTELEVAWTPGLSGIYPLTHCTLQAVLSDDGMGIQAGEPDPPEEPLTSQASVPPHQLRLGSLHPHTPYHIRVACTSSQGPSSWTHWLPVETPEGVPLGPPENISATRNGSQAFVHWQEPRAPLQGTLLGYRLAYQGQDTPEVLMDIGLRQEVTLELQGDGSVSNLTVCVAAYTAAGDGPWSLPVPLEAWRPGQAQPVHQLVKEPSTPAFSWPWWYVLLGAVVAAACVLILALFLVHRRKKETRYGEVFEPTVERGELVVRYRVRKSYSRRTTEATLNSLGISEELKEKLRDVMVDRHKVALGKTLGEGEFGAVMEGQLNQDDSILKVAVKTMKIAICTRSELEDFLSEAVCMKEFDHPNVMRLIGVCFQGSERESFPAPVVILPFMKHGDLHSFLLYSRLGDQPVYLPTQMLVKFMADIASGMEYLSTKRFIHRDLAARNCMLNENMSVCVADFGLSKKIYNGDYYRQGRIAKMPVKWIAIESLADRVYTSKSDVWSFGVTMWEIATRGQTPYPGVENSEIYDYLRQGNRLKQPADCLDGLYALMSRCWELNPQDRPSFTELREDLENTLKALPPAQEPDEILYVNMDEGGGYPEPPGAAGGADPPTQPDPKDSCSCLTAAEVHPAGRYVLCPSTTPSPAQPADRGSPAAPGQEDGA
Briefly: Microfluidic capillary electrophoresis (MCE) kinase activity assay, Axl. Conditions: Table 2; MCE assay, ATP at Km.
Method: (§1) All reactions were terminated by addition of 20 μL of 70 mM EDTA. After a 180 min incubation, phosphorylated and unphosphorylated substrate peptides (Table 6) were separated in buffer supplemented with 1× CR-8 on a LabChip EZ Reader equipped with a 12-sipper chip. Data were analyzed using EZ Reader software.

Assay [2] addresses T2, TYRO3 (Homo sapiens, UniProt Q06418).
T2 sequence (Q06418 41-890): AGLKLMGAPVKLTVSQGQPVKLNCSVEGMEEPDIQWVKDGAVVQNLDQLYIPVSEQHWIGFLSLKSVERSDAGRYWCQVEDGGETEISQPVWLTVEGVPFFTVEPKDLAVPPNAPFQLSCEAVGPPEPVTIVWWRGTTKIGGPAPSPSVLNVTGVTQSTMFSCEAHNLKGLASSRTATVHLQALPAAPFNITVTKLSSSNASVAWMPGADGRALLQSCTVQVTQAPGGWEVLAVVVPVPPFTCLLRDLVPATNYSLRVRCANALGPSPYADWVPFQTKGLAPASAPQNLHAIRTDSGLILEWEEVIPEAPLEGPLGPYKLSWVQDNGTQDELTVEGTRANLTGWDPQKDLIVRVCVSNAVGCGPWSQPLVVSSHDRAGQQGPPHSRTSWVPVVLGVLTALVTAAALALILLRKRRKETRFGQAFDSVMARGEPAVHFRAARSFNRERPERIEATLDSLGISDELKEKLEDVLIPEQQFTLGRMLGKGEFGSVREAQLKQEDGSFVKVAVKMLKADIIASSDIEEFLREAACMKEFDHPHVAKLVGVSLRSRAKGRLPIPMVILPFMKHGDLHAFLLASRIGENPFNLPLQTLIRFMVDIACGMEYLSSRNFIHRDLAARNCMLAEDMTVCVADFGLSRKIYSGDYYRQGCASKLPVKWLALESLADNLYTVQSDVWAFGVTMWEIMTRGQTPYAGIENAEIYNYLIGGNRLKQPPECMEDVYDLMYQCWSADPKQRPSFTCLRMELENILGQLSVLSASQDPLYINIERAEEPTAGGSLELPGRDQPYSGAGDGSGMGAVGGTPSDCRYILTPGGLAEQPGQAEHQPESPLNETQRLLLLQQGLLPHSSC
Briefly: Microfluidic capillary electrophoresis (MCE) kinase activity assay, Tyro3.
Method: as §1

The target of assay [3] is T3, MERTK (Homo sapiens, UniProt Q12866).
T3 sequence (Q12866 21-999): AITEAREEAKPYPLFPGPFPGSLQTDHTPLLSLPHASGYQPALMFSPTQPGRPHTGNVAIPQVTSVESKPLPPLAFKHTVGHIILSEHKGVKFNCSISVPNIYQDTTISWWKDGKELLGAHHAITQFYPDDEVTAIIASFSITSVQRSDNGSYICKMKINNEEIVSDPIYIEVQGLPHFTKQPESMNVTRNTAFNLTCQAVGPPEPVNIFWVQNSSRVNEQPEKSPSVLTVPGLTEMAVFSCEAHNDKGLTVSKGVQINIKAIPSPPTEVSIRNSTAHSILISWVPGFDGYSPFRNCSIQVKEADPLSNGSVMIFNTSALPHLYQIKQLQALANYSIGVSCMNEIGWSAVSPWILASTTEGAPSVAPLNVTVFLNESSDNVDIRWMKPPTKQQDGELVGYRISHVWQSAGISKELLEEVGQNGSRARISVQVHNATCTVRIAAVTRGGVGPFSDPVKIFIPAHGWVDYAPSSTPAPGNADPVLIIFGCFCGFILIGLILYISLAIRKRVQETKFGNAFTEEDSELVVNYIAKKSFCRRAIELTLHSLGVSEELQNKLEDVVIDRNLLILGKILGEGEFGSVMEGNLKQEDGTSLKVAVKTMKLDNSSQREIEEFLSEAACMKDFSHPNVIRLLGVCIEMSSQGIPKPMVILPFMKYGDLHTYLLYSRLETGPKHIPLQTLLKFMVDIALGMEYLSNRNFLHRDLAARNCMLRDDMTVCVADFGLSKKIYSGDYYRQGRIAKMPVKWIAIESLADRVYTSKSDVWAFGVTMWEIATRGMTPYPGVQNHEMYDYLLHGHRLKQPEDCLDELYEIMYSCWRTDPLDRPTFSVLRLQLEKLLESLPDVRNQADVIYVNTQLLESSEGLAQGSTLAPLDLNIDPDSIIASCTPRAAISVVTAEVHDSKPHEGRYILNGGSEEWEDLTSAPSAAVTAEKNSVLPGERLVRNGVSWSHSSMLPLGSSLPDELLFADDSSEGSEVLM
Nature of the assay: Microfluidic capillary electrophoresis (MCE) kinase activity assay, Mer.
Method: as §1

With `CN1CCN(Cc2ccc(-c3cn([C@H]4CC[C@H](O)CC4)c4nc(Nc5cc(F)cc(Cl)c5)ncc34)cc2)CC1` [Compound 7], the 50% inhibitory concentration (IC50) in assay [1] is 10 to 100 nM; in assay [2] (Table 2, MCE assay, ATP at Km) it was less than 10 nM; in assay [3] (Table 2, MCE assay, ATP at Km), less than 10 nM.

Turning to `CN1CCN(Cc2ccc(-c3cn([C@H]4CC[C@H](O)CC4)c4nc(Nc5cc(Cl)c(F)c(Cl)c5)ncc34)cc2)CC1` [Compound 8], the IC50 is 10 to 100 nM in assay [1]; less than 10 nM in assay [2] (Table 2, MCE assay, ATP at Km); 10 to 100 nM in assay [3] (Table 2, MCE assay, ATP at Km).

With `O[C@H]1CC[C@H](n2cc(-c3ccc(CN4CCC(F)(F)CC4)cc3)c3cnc(Nc4cc(C(F)(F)F)cc(C(F)(F)F)c4)nc32)CC1` [Compound 10], the IC50 in assay [1] lay in the range of 100 to 1000 nM; in assay [2] (Table 2, MCE assay, ATP at Km), 10 to 100 nM; in assay [3] (Table 2, MCE assay, ATP at Km), 100 to 1000 nM.

In the case of `O[C@H]1CC[C@H](n2cc(-c3ccc(CNCCN4CCOCC4)cc3)c3cnc(Nc4cc(C(F)(F)F)cc(C(F)(F)F)c4)nc32)CC1` [Compound 19], the IC50 in assay [1] was 100 to 1000 nM; in assay [2] (Table 2, MCE assay, ATP at Km) it was less than 10 nM; in assay [3] (Table 2, MCE assay, ATP at Km) it was 100 to 1000 nM.

For the compound `CN(C)C1CCN(Cc2ccc(-c3cn([C@H]4CC[C@H](O)CC4)c4nc(Nc5cc(F)cc(Cl)c5)ncc34)cc2)CC1` [Compound 22], the concentration for half-maximal inhibition (IC50) in assay [1] is 10 to 100 nM; in assay [2] (Table 2, MCE assay, ATP at Km), less than 10 nM; in assay [3] (Table 2, MCE assay, ATP at Km), less than 10 nM.

Take `O[C@H]1CC[C@H](n2cc(-c3ccc(CN4CCC(F)(F)CC4)cc3)c3cnc(Nc4cc(F)cc(Cl)c4)nc32)CC1` [Compound 23]: the IC50 in assay [1] was 100 to 1000 nM; in assay [2] (Table 2, MCE assay, ATP at Km) it was less than 10 nM; in assay [3] (Table 2, MCE assay, ATP at Km), 10 to 100 nM.

As to `CN1CCCN(Cc2ccc(-c3cn([C@H]4CC[C@H](O)CC4)c4nc(Nc5cc(F)cc(Cl)c5)ncc34)cc2)CC1` [Compound 24], the IC50 in assay [1] is 10 to 100 nM; in assay [2] (Table 2, MCE assay, ATP at Km), less than 10 nM; in assay [3] (Table 2, MCE assay, ATP at Km), less than 10 nM.

As to `CN1CCC(Nc2ccc(-c3cn([C@H]4CC[C@H](O)CC4)c4nc(Nc5cc(F)cc(Cl)c5)ncc34)cc2)CC1` [Compound 56], the IC50 in assay [2] (Table 8) and in assay [3] (Table 8) was less than 10 nM each time.

For the compound `CN1CCN(S(=O)(=O)c2ccc(-c3cn([C@H]4CC[C@H](O)CC4)c4nc(Nc5cc(F)cc(Cl)c5)ncc34)cc2)CC1` [Compound 63], the IC50 in assay [2] (Table 9) and in assay [3] (Table 9) was less than 10 nM in each case.

Take `CN1CCN(Cc2ccc(-c3cn([C@H]4CC[C@H](O)CC4)c4nc(Nc5cccc(C(F)(F)F)c5)ncc34)cc2)CC1` [Compound 147]: the half-maximal inhibitory concentration (IC50) is less than 10 nM in assay [2] (Table 2, MCE assay, ATP at Km) and less than 10 nM in assay [3] (Table 2, MCE assay, ATP at Km).

Take `CN1CCN(Cc2ccc(-c3cn([C@H]4CC[C@H](O)CC4)c4nc(Nc5cc(Cl)cc(C(F)(F)F)c5)ncc34)cc2)CC1` [Compound 148]: the IC50 in assay [2] (Table 2, MCE assay, ATP at Km) was less than 10 nM; in assay [3] (Table 2, MCE assay, ATP at Km), 10 to 100 nM.

As for `CN1CCN(Cc2ccc(-c3cn([C@H]4CC[C@H](O)CC4)c4nc(Nc5cc(F)cc(C(F)(F)F)c5)ncc34)cc2)CC1` [Compound 149], the IC50 in assay [2] (Table 2, MCE assay, ATP at Km) was less than 10 nM; in assay [3] (Table 2, MCE assay, ATP at Km) it was less than 10 nM.

What is called IC50 is the concentration that gives 50% inhibition. A high value points to weaker potency in that assay.
